Measured values as given in ChEMBL document CHEMBL5465560, “Selectivity Literature for EUbOPEN Chemogenomic Library” (2024).
One block for each molecule: values may come before it.

Key:
[1] = target: T1, Phosphatidylinositol 3-kinase C2 domain-containing subunit gamma (Homo sapiens) (UniProt O75747); test: Selectivity interaction (Ambit KINOMEscan and KiNATiv profiling in Jurkat cells) EUB0000090b PIK3C2G; format: cell-based; settings: at 1 µM
T1 sequence (whole entry): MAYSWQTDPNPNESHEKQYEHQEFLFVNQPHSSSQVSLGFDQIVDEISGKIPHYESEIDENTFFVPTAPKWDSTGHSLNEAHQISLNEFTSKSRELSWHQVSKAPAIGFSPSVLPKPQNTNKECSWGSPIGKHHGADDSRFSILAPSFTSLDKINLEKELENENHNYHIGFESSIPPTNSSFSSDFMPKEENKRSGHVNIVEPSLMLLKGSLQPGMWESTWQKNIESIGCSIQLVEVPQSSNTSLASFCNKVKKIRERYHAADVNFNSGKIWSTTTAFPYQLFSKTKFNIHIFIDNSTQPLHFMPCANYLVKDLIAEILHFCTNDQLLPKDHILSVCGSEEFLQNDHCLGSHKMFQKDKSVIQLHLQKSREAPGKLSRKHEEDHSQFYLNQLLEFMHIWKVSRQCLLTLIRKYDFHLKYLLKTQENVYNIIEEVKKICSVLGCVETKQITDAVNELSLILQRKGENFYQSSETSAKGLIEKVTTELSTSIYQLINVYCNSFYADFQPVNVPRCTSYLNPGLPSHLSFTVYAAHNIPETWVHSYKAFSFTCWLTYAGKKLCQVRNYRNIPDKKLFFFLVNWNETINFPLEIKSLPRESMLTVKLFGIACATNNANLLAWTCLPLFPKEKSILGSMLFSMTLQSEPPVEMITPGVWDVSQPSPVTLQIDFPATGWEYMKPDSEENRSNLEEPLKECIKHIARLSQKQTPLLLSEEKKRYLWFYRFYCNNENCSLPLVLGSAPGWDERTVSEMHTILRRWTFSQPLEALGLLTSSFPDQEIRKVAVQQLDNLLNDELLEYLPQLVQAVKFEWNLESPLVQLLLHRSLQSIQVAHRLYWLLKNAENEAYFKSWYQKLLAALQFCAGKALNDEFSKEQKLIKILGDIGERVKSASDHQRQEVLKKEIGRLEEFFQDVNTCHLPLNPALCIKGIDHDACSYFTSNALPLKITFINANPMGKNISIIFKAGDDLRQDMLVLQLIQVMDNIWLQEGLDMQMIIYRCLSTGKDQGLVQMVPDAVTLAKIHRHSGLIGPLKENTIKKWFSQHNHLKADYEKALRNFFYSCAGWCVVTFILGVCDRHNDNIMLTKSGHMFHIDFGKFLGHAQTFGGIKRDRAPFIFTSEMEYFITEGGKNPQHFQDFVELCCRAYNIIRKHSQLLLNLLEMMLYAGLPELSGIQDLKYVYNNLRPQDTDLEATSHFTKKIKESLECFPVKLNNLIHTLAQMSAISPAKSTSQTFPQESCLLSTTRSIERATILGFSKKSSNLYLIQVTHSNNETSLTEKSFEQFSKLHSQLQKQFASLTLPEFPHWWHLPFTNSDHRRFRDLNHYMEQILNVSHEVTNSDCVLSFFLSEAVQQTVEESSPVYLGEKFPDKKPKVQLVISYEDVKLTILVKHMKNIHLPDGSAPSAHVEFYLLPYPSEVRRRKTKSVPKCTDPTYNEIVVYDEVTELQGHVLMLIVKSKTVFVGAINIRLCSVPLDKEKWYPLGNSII

[2] = target: Leucine-rich repeat serine/threonine-protein kinase 2 (Homo sapiens, UniProt Q5S007); test: Selectivity interaction (Kinase panel (Invitrogen)) EUB0000639a LRRK2; settings: at 200 nM
[3] = target: T2, Ephrin type-B receptor 4 (Homo sapiens) (UniProt P54760); test: Selectivity interaction (ProQinase) EUB0000171b EPHB4
T2 sequence (whole entry): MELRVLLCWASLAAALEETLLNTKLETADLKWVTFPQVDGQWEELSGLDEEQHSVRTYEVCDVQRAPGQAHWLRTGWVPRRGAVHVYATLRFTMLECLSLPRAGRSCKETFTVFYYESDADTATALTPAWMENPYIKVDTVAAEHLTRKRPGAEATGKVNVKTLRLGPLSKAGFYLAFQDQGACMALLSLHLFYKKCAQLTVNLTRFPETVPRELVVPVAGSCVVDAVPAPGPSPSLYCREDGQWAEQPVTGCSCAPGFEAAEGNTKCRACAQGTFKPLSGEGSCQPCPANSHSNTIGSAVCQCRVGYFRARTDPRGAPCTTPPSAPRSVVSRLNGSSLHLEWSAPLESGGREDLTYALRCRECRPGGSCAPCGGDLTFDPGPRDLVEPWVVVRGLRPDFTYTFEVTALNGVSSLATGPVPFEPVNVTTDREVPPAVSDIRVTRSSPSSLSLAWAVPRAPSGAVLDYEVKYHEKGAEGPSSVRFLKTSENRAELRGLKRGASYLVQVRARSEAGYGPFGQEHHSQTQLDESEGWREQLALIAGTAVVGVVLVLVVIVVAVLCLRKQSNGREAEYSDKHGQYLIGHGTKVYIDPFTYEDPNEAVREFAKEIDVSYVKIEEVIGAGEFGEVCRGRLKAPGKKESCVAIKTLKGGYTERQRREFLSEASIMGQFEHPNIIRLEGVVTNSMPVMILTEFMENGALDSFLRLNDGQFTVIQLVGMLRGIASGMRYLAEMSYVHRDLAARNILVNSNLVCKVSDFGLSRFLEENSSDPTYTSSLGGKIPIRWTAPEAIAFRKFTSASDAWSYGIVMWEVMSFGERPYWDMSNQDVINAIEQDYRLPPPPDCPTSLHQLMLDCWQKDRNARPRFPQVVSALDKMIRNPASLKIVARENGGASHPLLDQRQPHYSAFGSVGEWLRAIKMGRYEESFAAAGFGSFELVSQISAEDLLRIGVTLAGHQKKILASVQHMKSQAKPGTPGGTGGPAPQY

[4] = target: Vascular endothelial growth factor receptor 2 (Homo sapiens, UniProt P35968); test: Selectivity interaction (Upstate Kinase Profiler service (Millipore)) EUB0000056c KDR; settings: at 1 µM
[5] = target: Macrophage colony-stimulating factor 1 receptor (Homo sapiens) (UniProt P07333); test: Selectivity interaction (KinomeScan (DiscoverX)) EUB0000045b CSF1R
[6] = target: cAMP-dependent protein kinase catalytic subunit beta (Homo sapiens) (UniProt P22694); test: Selectivity interaction (KinomeScan (DiscoverX)) EUB0000666a PRKACB; settings: at 10 µM

Chain of Macrophage colony-stimulating factor 1 receptor (Homo sapiens) (P07333 whole entry): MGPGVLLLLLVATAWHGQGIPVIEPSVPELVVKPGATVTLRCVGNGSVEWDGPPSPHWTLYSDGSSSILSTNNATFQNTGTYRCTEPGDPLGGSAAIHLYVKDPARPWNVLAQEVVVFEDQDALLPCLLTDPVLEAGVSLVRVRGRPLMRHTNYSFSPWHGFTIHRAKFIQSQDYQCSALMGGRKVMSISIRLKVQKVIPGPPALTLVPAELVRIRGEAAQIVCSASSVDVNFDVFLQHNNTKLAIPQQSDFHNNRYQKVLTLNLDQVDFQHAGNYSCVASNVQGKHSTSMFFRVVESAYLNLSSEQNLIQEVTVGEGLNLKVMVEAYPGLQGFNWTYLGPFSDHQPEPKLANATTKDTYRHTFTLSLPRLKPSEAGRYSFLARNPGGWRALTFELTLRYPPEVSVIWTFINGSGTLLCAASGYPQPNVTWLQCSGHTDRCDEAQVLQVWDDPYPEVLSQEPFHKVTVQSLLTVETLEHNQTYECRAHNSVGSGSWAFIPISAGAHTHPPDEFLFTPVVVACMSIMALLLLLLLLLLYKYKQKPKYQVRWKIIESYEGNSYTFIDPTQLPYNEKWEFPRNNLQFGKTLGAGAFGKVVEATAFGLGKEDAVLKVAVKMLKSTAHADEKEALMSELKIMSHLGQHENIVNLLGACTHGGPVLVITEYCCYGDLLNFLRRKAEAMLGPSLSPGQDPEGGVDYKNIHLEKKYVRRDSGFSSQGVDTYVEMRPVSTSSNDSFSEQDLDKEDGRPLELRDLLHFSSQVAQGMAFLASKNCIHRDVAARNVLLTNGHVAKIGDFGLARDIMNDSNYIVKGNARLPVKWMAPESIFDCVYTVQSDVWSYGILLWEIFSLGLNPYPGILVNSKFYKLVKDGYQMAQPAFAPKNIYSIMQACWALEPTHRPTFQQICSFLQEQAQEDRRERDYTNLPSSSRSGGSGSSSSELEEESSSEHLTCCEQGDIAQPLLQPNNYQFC
Chain of Vascular endothelial growth factor receptor 2 (P35968 whole entry): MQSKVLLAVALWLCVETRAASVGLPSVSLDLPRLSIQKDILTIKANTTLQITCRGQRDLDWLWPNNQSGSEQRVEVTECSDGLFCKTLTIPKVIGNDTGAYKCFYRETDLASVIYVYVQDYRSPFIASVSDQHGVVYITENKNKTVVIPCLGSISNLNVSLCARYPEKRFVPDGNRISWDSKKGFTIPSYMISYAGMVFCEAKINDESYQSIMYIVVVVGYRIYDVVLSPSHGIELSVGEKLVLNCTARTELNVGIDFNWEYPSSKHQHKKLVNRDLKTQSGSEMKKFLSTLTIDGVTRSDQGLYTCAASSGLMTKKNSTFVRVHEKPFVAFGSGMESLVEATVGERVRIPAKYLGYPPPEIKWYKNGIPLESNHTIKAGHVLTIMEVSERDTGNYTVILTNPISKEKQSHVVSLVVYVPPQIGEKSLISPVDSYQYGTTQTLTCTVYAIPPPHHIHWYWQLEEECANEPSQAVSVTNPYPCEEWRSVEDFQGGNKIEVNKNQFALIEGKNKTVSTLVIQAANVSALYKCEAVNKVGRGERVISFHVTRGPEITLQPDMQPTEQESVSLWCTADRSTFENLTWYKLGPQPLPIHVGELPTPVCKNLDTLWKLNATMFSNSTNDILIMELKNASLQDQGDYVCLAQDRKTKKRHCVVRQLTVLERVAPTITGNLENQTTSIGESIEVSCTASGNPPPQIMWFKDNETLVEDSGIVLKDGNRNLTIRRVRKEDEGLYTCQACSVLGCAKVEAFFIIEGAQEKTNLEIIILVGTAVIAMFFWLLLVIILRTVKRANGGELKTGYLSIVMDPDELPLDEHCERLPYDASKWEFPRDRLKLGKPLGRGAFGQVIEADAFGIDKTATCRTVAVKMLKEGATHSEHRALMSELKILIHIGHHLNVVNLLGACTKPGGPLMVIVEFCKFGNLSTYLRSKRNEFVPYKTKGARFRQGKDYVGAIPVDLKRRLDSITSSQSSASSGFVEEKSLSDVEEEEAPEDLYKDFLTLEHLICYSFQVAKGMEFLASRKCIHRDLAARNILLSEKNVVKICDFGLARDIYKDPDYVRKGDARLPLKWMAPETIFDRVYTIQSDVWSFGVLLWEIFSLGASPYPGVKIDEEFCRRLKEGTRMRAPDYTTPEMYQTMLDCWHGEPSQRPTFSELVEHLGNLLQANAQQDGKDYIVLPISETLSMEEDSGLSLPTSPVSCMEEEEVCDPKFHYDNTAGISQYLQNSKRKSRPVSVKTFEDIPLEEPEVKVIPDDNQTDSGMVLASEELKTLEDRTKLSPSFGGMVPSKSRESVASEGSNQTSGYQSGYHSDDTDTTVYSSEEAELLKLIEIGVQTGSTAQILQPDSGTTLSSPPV
Chain of Leucine-rich repeat serine/threonine-protein kinase 2 (Q5S007 whole entry): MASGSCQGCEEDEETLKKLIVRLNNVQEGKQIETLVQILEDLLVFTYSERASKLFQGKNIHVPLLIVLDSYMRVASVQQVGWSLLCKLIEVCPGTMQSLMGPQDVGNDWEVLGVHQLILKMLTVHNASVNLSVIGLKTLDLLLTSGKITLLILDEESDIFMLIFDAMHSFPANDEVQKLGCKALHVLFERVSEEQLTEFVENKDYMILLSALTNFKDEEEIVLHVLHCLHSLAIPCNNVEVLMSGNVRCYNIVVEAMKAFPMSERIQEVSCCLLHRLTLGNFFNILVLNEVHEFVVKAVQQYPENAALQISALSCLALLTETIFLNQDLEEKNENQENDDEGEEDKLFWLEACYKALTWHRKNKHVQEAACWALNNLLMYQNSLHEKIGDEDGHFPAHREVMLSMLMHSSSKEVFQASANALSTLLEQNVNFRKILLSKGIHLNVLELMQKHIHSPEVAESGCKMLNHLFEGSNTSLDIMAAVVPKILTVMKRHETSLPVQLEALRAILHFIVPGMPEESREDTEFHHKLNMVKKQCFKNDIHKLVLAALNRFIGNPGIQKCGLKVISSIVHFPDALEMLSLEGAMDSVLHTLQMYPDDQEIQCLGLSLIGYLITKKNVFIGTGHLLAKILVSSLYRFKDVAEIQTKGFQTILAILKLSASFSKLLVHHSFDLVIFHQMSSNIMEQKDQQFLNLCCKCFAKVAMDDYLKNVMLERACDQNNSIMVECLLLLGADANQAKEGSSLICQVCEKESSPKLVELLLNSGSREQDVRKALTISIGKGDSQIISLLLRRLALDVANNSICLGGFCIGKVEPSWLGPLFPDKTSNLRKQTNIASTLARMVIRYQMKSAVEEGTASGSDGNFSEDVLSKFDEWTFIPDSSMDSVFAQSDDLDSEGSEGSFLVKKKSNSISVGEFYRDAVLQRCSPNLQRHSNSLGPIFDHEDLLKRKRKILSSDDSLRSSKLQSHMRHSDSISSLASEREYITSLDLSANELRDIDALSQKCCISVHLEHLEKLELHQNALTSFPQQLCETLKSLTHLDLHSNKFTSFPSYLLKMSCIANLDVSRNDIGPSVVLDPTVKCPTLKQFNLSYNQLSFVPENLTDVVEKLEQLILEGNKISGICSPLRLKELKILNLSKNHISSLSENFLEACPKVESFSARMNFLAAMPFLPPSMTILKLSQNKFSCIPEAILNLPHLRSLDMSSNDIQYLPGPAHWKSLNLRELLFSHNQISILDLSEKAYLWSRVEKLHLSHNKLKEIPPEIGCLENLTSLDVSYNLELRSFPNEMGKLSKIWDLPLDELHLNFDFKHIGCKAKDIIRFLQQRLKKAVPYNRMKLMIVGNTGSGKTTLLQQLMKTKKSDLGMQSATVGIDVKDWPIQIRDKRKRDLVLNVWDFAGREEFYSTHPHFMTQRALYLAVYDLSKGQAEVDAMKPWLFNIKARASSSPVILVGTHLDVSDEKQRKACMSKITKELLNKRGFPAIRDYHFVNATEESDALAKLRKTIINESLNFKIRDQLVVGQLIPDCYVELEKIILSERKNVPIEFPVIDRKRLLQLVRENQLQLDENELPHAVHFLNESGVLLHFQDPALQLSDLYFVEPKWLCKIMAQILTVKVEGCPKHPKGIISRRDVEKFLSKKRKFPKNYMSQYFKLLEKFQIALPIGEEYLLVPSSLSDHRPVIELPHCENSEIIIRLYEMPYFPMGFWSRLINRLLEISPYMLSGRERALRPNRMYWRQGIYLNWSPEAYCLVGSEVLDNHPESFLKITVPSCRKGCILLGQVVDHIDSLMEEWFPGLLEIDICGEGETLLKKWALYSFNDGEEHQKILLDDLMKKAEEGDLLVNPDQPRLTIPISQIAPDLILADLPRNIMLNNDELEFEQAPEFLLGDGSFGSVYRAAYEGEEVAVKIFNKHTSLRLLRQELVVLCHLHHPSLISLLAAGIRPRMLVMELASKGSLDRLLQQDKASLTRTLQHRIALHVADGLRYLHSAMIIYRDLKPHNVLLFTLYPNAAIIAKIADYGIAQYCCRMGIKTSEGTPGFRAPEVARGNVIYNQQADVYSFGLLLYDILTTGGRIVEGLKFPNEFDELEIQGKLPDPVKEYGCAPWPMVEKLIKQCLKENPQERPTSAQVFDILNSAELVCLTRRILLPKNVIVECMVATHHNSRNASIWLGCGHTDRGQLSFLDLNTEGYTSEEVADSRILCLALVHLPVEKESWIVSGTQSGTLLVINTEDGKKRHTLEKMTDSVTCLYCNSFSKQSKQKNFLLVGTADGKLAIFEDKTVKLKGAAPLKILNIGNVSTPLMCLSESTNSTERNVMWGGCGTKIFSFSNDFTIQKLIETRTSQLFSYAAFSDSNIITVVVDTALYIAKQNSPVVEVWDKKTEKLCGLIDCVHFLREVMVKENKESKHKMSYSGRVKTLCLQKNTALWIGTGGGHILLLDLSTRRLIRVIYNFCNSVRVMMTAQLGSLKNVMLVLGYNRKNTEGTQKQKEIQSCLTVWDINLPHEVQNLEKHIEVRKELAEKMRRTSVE

Structure (SMILES): CN(C)C/C=C/C(=O)Nc1ccc(C(=O)N2CCCC(Nc3ncc(Cl)c(-c4c[nH]c5ccccc45)n3)C2)cc1 (stereo not drawn)
- % of control [1]: 100%

Structure (SMILES): C=CC(=O)Nc1cc(-n2c(=O)ccc3cnc4ccc(-c5ccc(NS(C)(=O)=O)cc5)cc4c32)ccc1C
- % of control ([5]; at 1 µM): 94%
- % of control ([5]; at 10 µM): 87%

Structure (SMILES): O=C(NOC[C@H](O)CO)c1ccc(F)c(F)c1Nc1ccc(I)cc1F
- % of control [6]: 98%

Next, values leading:

- % of inhibition [2]: 75.5%
Structure (SMILES): CC[C@@H]1[C@H](F)C(=O)N[C@@H]1COc1nccc2cc(C(N)=O)c(OC)cc12 [ZIMLOVISERTIB]

- % of control ([3]; at 1 µM): 110%
- % of control ([3]; at 5 µM): 111%
Structure (SMILES): C=CC(=O)Nc1cccc(C(=O)Nc2ccc(Nc3cc(-c4[nH]c(SC)nc4C)ccn3)cc2)c1

- % of inhibition [4]: 21%
Structure (SMILES): Cc1ccc(-c2ccc3c(ccc4sc5c(c43)NC[C@@H](C)NC5=O)n2)cn1
